Several values for one entry are separate records, joined by “and”; a condition that tells them apart may be missing. Equal values may be shown once. Read-outs that look alike come from different tables or passages of the source.
Key:
[1] = test system: broad array of mammalian enzymes, receptors and ion channels; experiment: Preliminary safety pharmacology panel; type: binding
[2] = In vitro micronucleus study; type: cell-based
[3] = test system: T. cruzi intracellular amastigotes; experiment: In vitro anti-T. cruzi intracellular amastigote growth inhibition assay (tdTomato fluorescence over 72 hours, Vero cells); type: cell-based, Trypanosoma cruzi
Experimental: (§1) The in vitro anti-T. cruzi amastiogote activity assay was performed and optimized based on the protocol described previously. The change in tdTomato fluorescence intensity was determined as a measurement of growth over 72 hours of culture. For assaying drug effects on extracellular amastigotes, trypomastigotes were collected from infected Vero cell cultures and converted in acidic media as previously described. Amastigotes (50,000/well) were incubated with 2-fold serial dilutions of compounds for 48 hours. The ATP production was used as an indication of growth in this case, and was measured by ATPlite Luminescence ATP Detection Assay System (PerkinElmer). Both fluorescence and luminescence were read using a BioTek Synergy Hybrid Multi-Mode reader equipped with the software Gene5 v 2.0 (BioTek). The dose-response curve was generated by […] analysis with GraphPad Prism v9.4.0 (GraphPad Software).

[4] = test system: CPSF3-OE T. cruzi intracellular amastigotes; experiment: microbe, parasite or virus in culture; type: cell-based; details: Trypanosoma cruzi, read-out: CPSF3-OE IC50, intracellular amastigotes
Experimental: as §1
The CPSF3 gene was amplified using primers ‘[…]’ and ‘[…]’, and integrated into the pTrex vector [47] by NEBuilder HiFi DNA assembly (New England Biolabs). The construct of pTrex-CPSF was then transfected into Brazil tdTomato epimastigotes and selected by 60ug/ml blasticidin.
To confirm the CPSF overexpression in the selected transfectants, RNA was extracted as previously described and converted to cDNA using SuperScript Reverse Transcriptase (Invitrogen). Quantitative PCR reactions were performed in triplicate on the C1000 Touch Bio-Rad CFX96 real-time PCR detection system for CPSF using primer sets CPSF-1 (5'-[…]-3' and 5'-[…]-3') and CPSF-2 (5'-[…]-3' and 5'-[…]-3') in both control and CPSF over-expressing parasites, and the expression level was normalized to tubulin which was amplified using primers: ‘[…]’ and ‘[…]’.

[5] = test system: representative cytochrome P450 enzymes; experiment: Cytochrome P450 inhibition; type: in vitro ADME; details: 10 uM
T. cruzi Brazil strain = experiment: Mouse cure assays (daily oral treatment, immunosuppression, qPCR of skeletal muscle, blood microscopy, hemoculture); type: in vivo, C57BL/6 mice; details: for Parasite equivalent/ 50 ng of DNA of skeletal muscle: individual mice; for Parasite Equivalents/50ng of DNA of skeletal muscle: individual animals
Experimental: Male or female C57BL/6 mice were intraperitoneally infected with 10^4 trypomastigotes of the Brazil strain. Mouse infection was confirmed at 25-30 dpi by detection of CD8^+ T cells specific against the T. cruzi TSKb20 peptide in blood. Compounds resuspended in 1% carboxymethyl cellulose and 0.1% Tween 80, were administered daily by gavage at the specified concentrations. In order to optimally detect persistent infection, immune responses in the mice were suppressed by intraperitoneal injection of four doses of cyclophosphamide every 2-3 days (200 mg/kg/day), beginning one week after the end of therapeutic treatment. At the end of the immunosuppression regimen, peripheral blood was checked under light microscope for parasites and cultured in LDNT media. Mouse skeletal muscle samples were obtained at the end of the immunosuppression and processed for T. cruzi-DNA detection by qPCR as previously described.

[6] = Pharmacokinetics in rats (IV and PO); set-up: species or system rat; details: in vivo
Experimental: Rat IV (2 mg/kg) Rat PO (10 mg/kg)
Cl (mL/h/kg) 2258 AUC0-last (hr*µg/mL) 3.34
AUC0-last (hr*µg/mL) 0.883
for AN15368 in rats. Data are presented as mean values +/- SEM; n= 3 animals.

[7] = test system: T. cruzi (naturally acquired infection); experiment: NHP treatment study: hemoculture; type: in vivo, rhesus macaques (Macaca mulatta); details: 30 mg/kg/day oral 60 days; all time points after end of treatment
Experimental: A total of 22 rhesus macaques that had been confirmed to be serologically- and PCR-positive for T. cruzi were utilized in these studies. Using 19 animals in the treatment group provided 85% power of detecting 100% efficacy. […] The remaining three animals on the study were maintained as untreated control animals and received food treats but were not dosed with AN15368.
For hemoculture determinations, peripheral blood from macaques was collected and cultured at 26°C in supplemented liver digest neutralized tryptose medium as described previously. The presence of T. cruzi parasites was assessed every week for 3 months under an inverted microscope. T. cruzi DTU of the macaque isolates was determined as previously described.

[8] = test system: Luciferase expressing T. cruzi (Colombiana strain); experiment: Low dose short treatment (whole body bioluminescence); type: in vivo, Hairless mice (SKH-1)
Description: Bioluminiscence signal of the whole body was measure after D-luciferin injection in a Lumina II IVIS in vivo imager equipped with the Living Imaging 4.0 software (PerkinElmer).

[9] = NHP clinical observation, physical exams and reproductive follow-up
Experimental: Under light-anesthesia/sedation, peripheral blood samples were collected from each animal prior to treatment and at 7 time points following. Blood analysis (CBC and serum chemistry assays) and physical exams to evaluate the health of the study animals were performed on each animal prior to the beginning of the study and also at three time points during the treatment protocol (see Supplementary data).

[10] = Trypanosoma cruzi, Vero, read-out: WT IC50, WT intracellular amastigotes, control of CPSF3-OE comparison
[11] = Trypanosoma cruzi, Vero, in vitro, Fig. 1a, Extended Data Fig. 1a, read-out: T. cruzi IC50
[12] = Fig. 3b, mice treated for 40 days
[13] = Fig. 3c, mice treated for 20 days

Cc1c(C(=O)NC(C(=O)OCc2ccc(F)c(F)c2)C(C)C)ccc2c1B(O)OC2 (stereo not shown) [AN14353]
affinity for mammalian enzymes, receptors and ion channels [1]: little to no affinity
genotoxicity, in vitro micronucleus [2]: non-genotoxic
IC50 [3, 10]: 0.5 nM
IC50 [3, 11]: 6 nM
IC50 [4]: 1.9 nM
oral absorption (in words) (Pharmacokinetics in mice; mice, dose proportionality evaluation): solubility-limited absorption
dose proportionality of exposure (Pharmacokinetics in mice; mice, oral): lack of dose
genotoxicity, Ames (Ames study): non-genotoxic
inhibition of representative cytochrome P450 enzymes [5]: did not demonstrate significant inhibition
outcome of cure assay (T. cruzi Brazil strain; 25 mg/kg, 40 day treatment, wild-type mice and immunodeficient mice): could consistently resolve established T. cruzi infections
Parasite equivalent/ 50 ng of DNA of skeletal muscle (T. cruzi Brazil strain; [12]): 0.00339 Parasite equivalent/ 50 ng of DNA and 0.0112 Parasite equivalent/ 50 ng of DNA and 0.00674 Parasite equivalent/ 50 ng of DNA and 0.0326 Parasite equivalent/ 50 ng of DNA and 0.00218 Parasite equivalent/ 50 ng of DNA and 6.96e-5 Parasite equivalent/ 50 ng of DNA and 0.03 Parasite equivalent/ 50 ng of DNA
Parasite equivalent/ 50 ng of DNA of skeletal muscle (T. cruzi Brazil strain; [13]): 3.39 Parasite equivalent/ 50 ng of DNA and 0.89 Parasite equivalent/ 50 ng of DNA and 0.07 Parasite equivalent/ 50 ng of DNA and 1.14 Parasite equivalent/ 50 ng of DNA and 0.69 Parasite equivalent/ 50 ng of DNA and 1.27 Parasite equivalent/ 50 ng of DNA
Parasite Equivalents/50ng of DNA of skeletal muscle (T. cruzi Brazil strain; IFNg KO mice): 0.000877 Parasite Equivalents/50ng of DNA and 0.0011 Parasite Equivalents/50ng of DNA and 0.000197 Parasite Equivalents/50ng of DNA and 0.013 Parasite Equivalents/50ng of DNA and 0.002 Parasite Equivalents/50ng of DNA and 0.00327 Parasite Equivalents/50ng of DNA and 0.004 Parasite Equivalents/50ng of DNA and 0.00265 Parasite Equivalents/50ng of DNA and 0.000622 Parasite Equivalents/50ng of DNA
Parasite Equivalents/50ng of DNA of skeletal muscle (T. cruzi Brazil strain; mice, 10 mg/kg): 0.00752 Parasite Equivalents/50ng of DNA and 0.05 Parasite Equivalents/50ng of DNA and 0.00 Parasite Equivalents/50ng of DNA
Parasite Equivalents/50ng of DNA of skeletal muscle (T. cruzi Brazil strain; mice, 25 mg/kg): 0.00369 Parasite Equivalents/50ng of DNA and 0.00 Parasite Equivalents/50ng of DNA and 0.00185 Parasite Equivalents/50ng of DNA and 0.0154 Parasite Equivalents/50ng of DNA

Cc1c(C(=O)N[C@H](C(=O)OCC2CCOCC2)C(C)C)ccc2c1B(O)OC2 [AN15368]
AUC(0-t) ([6]; Rat IV (2 mg/kg)): 883 ng·h/mL
Cmax ([6]; Rat IV (2 mg/kg)): 1700 ± 200 ng/mL
clearance ([6]; Rat IV (2 mg/kg)): 37.6 mL/min/kg
Vd ([6]; Rat IV (2 mg/kg), read-out: Vss): 1.11 L/kg
AUC(0-t) ([6]; Rat PO (10 mg/kg)): 3340 ng·h/mL
Cmax ([6]; Rat PO (10 mg/kg)): 2100 ± 290 ng/mL
bioavailability ([6]; Rat PO (10 mg/kg)): 76.1%
culture of parasites from blood (in words) [7]: negative
affinity for mammalian enzymes, receptors and ion channels [1]: little to no affinity
genotoxicity, in vitro micronucleus [2]: non-genotoxic
Bioluminiscence signals of mice ([8]; AN15368_2.5mg, 19 dpi): 29400000 and 22400000 and 35610000 and 24370000
Bioluminiscence signals of mice ([8]; AN15368_5mg, 15 dpi): 8923000 and 11990000
Bioluminiscence signals of mice ([8]; AN15368_5mg, 19 dpi): 2040000
% of maximum ([3]; Fig 5.d, WT, [uM] 0.60): -2%
activity at 0.6 µM ([3]; Trypanosoma cruzi, Vero, 72 h, read-out: % of maximum, Fig 5.d, WT, [uM] 0.60): -2%
IC50 ([3]; Trypanosoma cruzi, Vero, 120 h, read-out: WT IC50, WT intracellular amastigotes, control of CPSF3 mutant comparison, Fig. 5d): 12 nM
IC50 [3, 10]: 2.4 nM
IC50 ([3]; Trypanosoma cruzi, Vero, read-out: WT IC50, WT intracellular amastigotes, control of TcCBP KO comparison): 2.4 nM
IC50 [3, 11]: 5 nM
IC50 [4]: 11.8 nM
exposure AUC0-last (Pharmacokinetics in mice; mice, 10mg/kg dose): 17.5 µg·h/kg
minimal curative exposure in mice (Pharmacokinetics in mice; mouse, in vivo, 2.5 mg/kg): 4.375 µg·h/kg
genotoxicity, Ames (Ames study): non-genotoxic
adverse events ([9]; 19 treated macaques, 60 day treatment period): No adverse events
healthy and T. cruzi-seronegative infants produced ([9]; female, rhesus monkey, in vivo, 2 years): 13
inhibition of representative cytochrome P450 enzymes [5]: did not demonstrate significant inhibition
minimal efficacious dose in mice (T. cruzi Brazil strain; 40 day treatment cure assay, Fig 3e): 2.5 mg/kg
Parasite equivalent/ 50 ng of DNA of skeletal muscle (T. cruzi Brazil strain; [12]): 0.0182 Parasite equivalent/ 50 ng of DNA and 0.32 Parasite equivalent/ 50 ng of DNA and 0.00408 Parasite equivalent/ 50 ng of DNA and 0.015 Parasite equivalent/ 50 ng of DNA and 0.12 Parasite equivalent/ 50 ng of DNA and 0.09 Parasite equivalent/ 50 ng of DNA and 0.06 Parasite equivalent/ 50 ng of DNA
Parasite equivalent/ 50 ng of DNA of skeletal muscle (T. cruzi Brazil strain; [13]): 0.60 Parasite equivalent/ 50 ng of DNA and 0.12 Parasite equivalent/ 50 ng of DNA and 6.19 Parasite equivalent/ 50 ng of DNA and 0.32 Parasite equivalent/ 50 ng of DNA and 0.45 Parasite equivalent/ 50 ng of DNA
Parasite equivalent/ 50 ng of DNA of skeletal muscle (T. cruzi Brazil strain; Fig. 3e, mice treated for 40 days with 2.5 mg/kg, 2.5 mg/kg): 0.7074 Parasite equivalent/ 50 ng of DNA and 0.07409 Parasite equivalent/ 50 ng of DNA and 0.06686 Parasite equivalent/ 50 ng of DNA and 0.2452 Parasite equivalent/ 50 ng of DNA and 0.02329 Parasite equivalent/ 50 ng of DNA and 2.237 Parasite equivalent/ 50 ng of DNA and 0.1466 Parasite equivalent/ 50 ng of DNA
outcome of cure assays (T. cruzi Brazil strain; mice, Fig. 3): cures T. cruzi infection in mice

Source: paper PMC9519446, “Discovery of an Orally Active Benzoxaborole Prodrug Effective in the Treatment of Chagas Disease in Non-human Primates” (Nature microbiology, 2022)
